“Also recorded” adds a separate entry of the source.
Tests used:
[1] = tested on: 51 other CNS neurotransmitter receptors and transporters; test: Broad-range screening (PDSP), summary; format: binding; conditions: 10 μmol/L
Procedure: (§1) For experimental details, please refer to the Psychoactive Drug Screening Program (PDSP) web site http://pdsp.med.unc.edu/.
(§2) ^a The default concentration for primary binding experiments is 10 µM (n = 4). ^b Negative inhibition represents a stimulation of binding. ^c BZPR: Benzodiazepine Receptors (rat brain site). ^d DOR: Delta Opioid Receptor; KOR: Kappa Opioid Receptor; MOR: Mu Opioid Receptor. ^e DAT: Dopamine Transporter; NET: Norepinephrine Transporter; SERT: Serotonin Transporter. ^f NMDA: N-methyl-D-aspartate receptor.

5-HT2C = molecular target: T1, 5-HT2C (Homo sapiens, UniProt P28335); test: PDSP primary binding, 5-HT2C; conditions: n = 4, read-out: Inhibition (primary binding competition efficacy), 5-HT2C
T1 construct: purchased NIMH Psychoactive Drug Screening Program (PDSP)
Procedure: as §1, §2

5-HT3 = molecular target: T2, 5-HT3 (Homo sapiens, UniProt P46098); test: PDSP primary binding, 5-HT3; conditions: n = 4, read-out: Inhibition (primary binding competition efficacy), 5-HT3
T2 construct: purchased NIMH Psychoactive Drug Screening Program (PDSP)
Procedure: as §1, §2

5-HT5A = molecular target: T3, 5-HT5A (Homo sapiens, UniProt P47898); test: PDSP primary binding, 5-HT5A; conditions: n = 4, read-out: Inhibition (primary binding competition efficacy), 5-HT5A
T3 construct: purchased NIMH Psychoactive Drug Screening Program (PDSP)
Procedure: as §1, §2

α1D adrenergic receptor = molecular target: T4, α1D adrenergic receptor (Homo sapiens, UniProt P25100); test: PDSP primary binding, α1D; conditions: n = 4, read-out: Inhibition (primary binding competition efficacy), α1D
T4 construct: purchased NIMH Psychoactive Drug Screening Program (PDSP)
Procedure: as §1, §2

α2B adrenergic receptor = molecular target: T5, α2B adrenergic receptor (Homo sapiens, UniProt P18089); test: PDSP primary binding, α2B; conditions: n = 4, read-out: Inhibition (primary binding competition efficacy), α2B
T5 construct: purchased NIMH Psychoactive Drug Screening Program (PDSP)
Procedure: as §1, §2

α2C adrenergic receptor = molecular target: T6, α2C adrenergic receptor (Homo sapiens, UniProt P18825); test: PDSP primary binding, α2C; conditions: n = 4, read-out: Inhibition (primary binding competition efficacy), α2C
T6 construct: purchased NIMH Psychoactive Drug Screening Program (PDSP)
Procedure: as §1, §2

β3 adrenergic receptor = molecular target: T7, β3 adrenergic receptor (Homo sapiens, UniProt P13945); test: PDSP primary binding, β3; conditions: n = 4, read-out: Inhibition (primary binding competition efficacy), β3
T7 construct: purchased NIMH Psychoactive Drug Screening Program (PDSP)
Procedure: as §1, §2

GABAA = test: PDSP primary binding, GABAA; conditions: 10 µM, n = 4
Procedure: as §1, §2

[2] = tested on: NMDA: N-methyl-D-aspartate receptor; test: PDSP primary binding, NMDA; conditions: 10 µM, n = 4
Procedure: as §1, §2

M1 muscarinic receptor = molecular target: T8, M1 muscarinic receptor (Homo sapiens, UniProt P11229); test: PDSP primary binding, M1; conditions: n = 4, read-out: Inhibition (primary binding competition efficacy), M1
T8 construct: purchased NIMH Psychoactive Drug Screening Program (PDSP)
Procedure: as §1, §2

M2 muscarinic receptor = molecular target: T9, M2 muscarinic receptor (Homo sapiens, UniProt P08172); test: PDSP primary binding, M2; conditions: n = 4, read-out: Inhibition (primary binding competition efficacy), M2
T9 construct: purchased NIMH Psychoactive Drug Screening Program (PDSP)
Procedure: as §1, §2

M3 muscarinic receptor = molecular target: T10, M3 muscarinic receptor (Homo sapiens, UniProt P20309); test: PDSP primary binding, M3; conditions: n = 4, read-out: Inhibition (primary binding competition efficacy), M3
T10 construct: purchased NIMH Psychoactive Drug Screening Program (PDSP)
Procedure: as §1, §2

[3] = Metabolic stability, liver microsomes, mouse; format: in vitro ADME; conditions: CD-1, 1.0E-06 M, 1 h
CYP2D6 = molecular target: T11, CYP2D6 (Homo sapiens, UniProt P10635); test: CYP2D6 inhibition, HLM, dextromethorphan substrate; format: in vitro ADME; conditions: 1.0E-05 M
T11 construct: from tissue; host or cells: human liver microsomes (HLM)
From the text: Supplement prp20002-e00026-sd1.doc, table 3: Table 3.

[4] = tested on: five different cytochrome P450 (CYP450) enzymes (2D6, 3A, 1A, 2C9, and 2C19); test: CYP450 inhibition panel (summary); format: in vitro ADME, human; conditions: in words
strain TA98 = test: Ames test, strain TA98; format: cell-based
Male C57 BL6 mice = test: SmartCube test; format: in vivo, mouse
Procedure: Male C57 BL6 mice (Taconic Farms) were used in the SmartCube® assay (PsychoGenics Inc., Tarrytown, NY). Mice were received at 7 weeks old and group-housed in OptiMICE ventilated cages with four mice/cage. Mice were acclimated to the colony room for at least 1 week prior to the first injections. All animals were tested in SmartCube® at 8 10 weeks old.
To acquire initial in vivo evaluation of our nicotinic ligands for behavioral effects relevant to psychiatric diseases, we used SmartCube®, an automated system in which mouse behavior is captured by digital video using novel, proprietary hardware that presents multiple challenges in a single test session and is analyzed with computer algorithms. Digital videos of the subjects are processed with computer vision algorithms to extract more than 1400 dependent measures including frequency and duration of behavioral states such as grooming, rearing, etc., and many other features obtained during the test session. Using machine learning techniques chosen to best separate pharmacological effects of reference compounds, the behavioral signatures of the mutant mice are then assessed quantitatively.
The most dominant of the features collected that define the drug class signature are identified and ranked using complex proprietary bioinformatics algorithms. The outcome of a SmartCube® run is a set of more than 1400 features (behavioral parameters) that can be used for various analyses. Many of these features are correlated (e.g., rearing counts and supported rearing counts). Therefore, we form statistically independent combinations of the original features (further referred to as decorrelated features) that discriminate between the groups more effectively. Next, we apply a proprietary feature ranking algorithm to score each feature discrimination power to weight each feature change by its relevance. The data obtained in this way are used to define drug signatures for known reference compounds and to establish therapeutic class signatures against which a test sample can be compared. The neuropharmacological effects of a test compound can be predicted by similarity to major classes of compounds, such as antipsychotics, anxiolytics, and antidepressants (Roberds et al. [2011]).
Mice are taken in their home cage to the SmartCube® suite of experimental rooms where they remain until they are placed in the apparatus for a single testing session. A standard SmartCube® protocol runs for a single session (∼45 min). After the session mice are group-housed again and brought back to the colony room. Any abnormal behavior is noted. […] At least 12 mice were used in each treatment group.

α7* nAChR = conditions: ref Yu et al. [2012], cited from earlier work
Balb/CJ mice = test: Acute toxicity / mortality in Balb/C mice; conditions: 300 mg/kg, wild-type Balb/CJ mice

T11 sequence (P10635 whole entry): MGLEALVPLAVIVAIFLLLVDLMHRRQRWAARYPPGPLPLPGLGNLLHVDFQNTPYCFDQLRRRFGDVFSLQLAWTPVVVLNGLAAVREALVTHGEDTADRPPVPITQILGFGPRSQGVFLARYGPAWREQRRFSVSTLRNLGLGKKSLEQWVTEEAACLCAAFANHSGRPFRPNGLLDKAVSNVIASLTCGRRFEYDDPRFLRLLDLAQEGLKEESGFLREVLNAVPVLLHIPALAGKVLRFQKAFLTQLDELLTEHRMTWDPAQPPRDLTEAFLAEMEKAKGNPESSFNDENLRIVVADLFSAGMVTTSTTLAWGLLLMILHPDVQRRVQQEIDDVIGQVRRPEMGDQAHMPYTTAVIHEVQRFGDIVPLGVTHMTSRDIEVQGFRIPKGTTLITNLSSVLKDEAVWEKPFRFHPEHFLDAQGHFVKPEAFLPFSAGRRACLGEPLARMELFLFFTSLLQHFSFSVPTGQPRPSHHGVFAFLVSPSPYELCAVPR
T10 sequence (P20309 whole entry): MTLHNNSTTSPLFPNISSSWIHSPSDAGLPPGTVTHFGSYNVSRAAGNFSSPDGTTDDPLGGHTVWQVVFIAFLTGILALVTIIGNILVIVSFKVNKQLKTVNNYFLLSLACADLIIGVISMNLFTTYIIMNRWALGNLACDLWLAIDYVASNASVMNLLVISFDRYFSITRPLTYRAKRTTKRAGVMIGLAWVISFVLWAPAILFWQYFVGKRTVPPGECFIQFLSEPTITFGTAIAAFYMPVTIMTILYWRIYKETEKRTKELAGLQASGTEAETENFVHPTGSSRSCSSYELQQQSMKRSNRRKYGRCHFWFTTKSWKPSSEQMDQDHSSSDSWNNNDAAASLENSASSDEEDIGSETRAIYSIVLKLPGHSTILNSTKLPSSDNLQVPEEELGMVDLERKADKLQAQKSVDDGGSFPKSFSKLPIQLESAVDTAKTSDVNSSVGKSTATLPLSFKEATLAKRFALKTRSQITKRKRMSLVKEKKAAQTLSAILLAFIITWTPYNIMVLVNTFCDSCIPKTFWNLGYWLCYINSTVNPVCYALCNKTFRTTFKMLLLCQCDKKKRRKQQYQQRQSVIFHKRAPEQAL
T9 sequence (P08172 whole entry): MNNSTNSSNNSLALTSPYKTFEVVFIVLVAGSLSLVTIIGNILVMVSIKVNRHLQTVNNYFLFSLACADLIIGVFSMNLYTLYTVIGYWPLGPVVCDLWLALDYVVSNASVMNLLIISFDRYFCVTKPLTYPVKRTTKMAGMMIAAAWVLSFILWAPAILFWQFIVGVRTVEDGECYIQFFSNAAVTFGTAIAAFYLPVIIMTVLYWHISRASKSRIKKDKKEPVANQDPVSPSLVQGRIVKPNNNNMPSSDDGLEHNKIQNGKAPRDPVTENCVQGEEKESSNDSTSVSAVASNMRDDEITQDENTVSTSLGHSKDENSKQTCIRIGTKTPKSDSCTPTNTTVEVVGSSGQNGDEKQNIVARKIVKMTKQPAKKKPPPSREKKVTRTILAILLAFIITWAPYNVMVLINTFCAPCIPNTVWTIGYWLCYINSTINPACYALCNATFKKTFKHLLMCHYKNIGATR
T6 sequence (P18825 whole entry): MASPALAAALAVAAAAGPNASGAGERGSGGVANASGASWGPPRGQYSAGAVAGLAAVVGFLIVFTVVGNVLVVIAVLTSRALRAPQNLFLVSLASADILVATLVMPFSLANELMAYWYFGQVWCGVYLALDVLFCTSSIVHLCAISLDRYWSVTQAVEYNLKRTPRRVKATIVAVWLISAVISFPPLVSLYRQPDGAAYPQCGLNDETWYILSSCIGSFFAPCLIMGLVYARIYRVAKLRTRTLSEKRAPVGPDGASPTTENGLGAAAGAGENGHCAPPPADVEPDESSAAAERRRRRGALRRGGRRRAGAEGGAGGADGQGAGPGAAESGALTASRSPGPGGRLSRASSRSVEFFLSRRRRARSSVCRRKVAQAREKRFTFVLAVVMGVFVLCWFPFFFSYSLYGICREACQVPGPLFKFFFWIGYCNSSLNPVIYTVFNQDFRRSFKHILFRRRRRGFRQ
T8 sequence (P11229 whole entry): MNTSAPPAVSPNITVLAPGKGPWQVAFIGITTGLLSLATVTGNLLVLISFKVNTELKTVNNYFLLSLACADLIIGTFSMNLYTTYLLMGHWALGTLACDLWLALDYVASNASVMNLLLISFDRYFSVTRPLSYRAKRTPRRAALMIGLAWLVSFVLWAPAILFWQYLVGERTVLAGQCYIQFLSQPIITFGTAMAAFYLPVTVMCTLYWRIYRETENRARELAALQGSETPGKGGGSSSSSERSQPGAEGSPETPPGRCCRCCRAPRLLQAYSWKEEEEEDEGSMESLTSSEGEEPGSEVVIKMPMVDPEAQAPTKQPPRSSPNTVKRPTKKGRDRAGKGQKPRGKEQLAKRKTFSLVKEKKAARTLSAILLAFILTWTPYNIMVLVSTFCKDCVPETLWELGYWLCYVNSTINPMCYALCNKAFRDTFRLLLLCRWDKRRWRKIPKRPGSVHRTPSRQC
T5 sequence (P18089 whole entry): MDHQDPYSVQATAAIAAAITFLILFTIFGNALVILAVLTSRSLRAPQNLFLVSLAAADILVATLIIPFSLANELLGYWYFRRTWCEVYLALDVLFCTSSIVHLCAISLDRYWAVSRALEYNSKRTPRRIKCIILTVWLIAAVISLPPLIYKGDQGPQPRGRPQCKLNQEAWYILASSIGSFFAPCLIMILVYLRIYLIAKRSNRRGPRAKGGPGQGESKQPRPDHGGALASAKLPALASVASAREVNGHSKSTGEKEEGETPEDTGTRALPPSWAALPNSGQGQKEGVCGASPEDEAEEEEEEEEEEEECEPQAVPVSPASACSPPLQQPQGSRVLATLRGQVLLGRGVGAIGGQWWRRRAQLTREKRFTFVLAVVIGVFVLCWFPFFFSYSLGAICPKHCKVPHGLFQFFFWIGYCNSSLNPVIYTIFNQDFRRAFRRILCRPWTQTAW
T7 sequence (P13945 whole entry): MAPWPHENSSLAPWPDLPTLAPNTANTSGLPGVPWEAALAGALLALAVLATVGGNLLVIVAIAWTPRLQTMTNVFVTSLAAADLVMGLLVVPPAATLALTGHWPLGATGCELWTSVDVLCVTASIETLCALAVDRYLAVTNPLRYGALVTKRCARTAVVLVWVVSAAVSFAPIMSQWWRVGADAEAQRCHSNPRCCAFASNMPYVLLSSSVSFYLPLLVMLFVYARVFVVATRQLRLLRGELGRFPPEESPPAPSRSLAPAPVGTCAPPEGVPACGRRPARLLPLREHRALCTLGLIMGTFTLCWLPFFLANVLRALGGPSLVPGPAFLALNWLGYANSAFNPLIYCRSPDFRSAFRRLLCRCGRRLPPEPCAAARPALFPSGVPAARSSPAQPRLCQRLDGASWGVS
T2 sequence (P46098 24-478): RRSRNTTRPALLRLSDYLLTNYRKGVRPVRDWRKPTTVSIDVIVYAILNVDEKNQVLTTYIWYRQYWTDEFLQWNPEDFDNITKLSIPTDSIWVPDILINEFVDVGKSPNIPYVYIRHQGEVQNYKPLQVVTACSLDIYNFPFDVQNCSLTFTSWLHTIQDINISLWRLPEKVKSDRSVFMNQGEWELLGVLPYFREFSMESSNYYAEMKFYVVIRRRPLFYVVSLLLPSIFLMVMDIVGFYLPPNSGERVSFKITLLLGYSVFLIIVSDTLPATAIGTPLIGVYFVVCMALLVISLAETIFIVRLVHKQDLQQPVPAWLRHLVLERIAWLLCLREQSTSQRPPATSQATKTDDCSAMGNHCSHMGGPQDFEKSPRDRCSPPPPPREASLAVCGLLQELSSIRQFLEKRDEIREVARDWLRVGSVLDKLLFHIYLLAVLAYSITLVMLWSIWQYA
T4 sequence (P25100 whole entry): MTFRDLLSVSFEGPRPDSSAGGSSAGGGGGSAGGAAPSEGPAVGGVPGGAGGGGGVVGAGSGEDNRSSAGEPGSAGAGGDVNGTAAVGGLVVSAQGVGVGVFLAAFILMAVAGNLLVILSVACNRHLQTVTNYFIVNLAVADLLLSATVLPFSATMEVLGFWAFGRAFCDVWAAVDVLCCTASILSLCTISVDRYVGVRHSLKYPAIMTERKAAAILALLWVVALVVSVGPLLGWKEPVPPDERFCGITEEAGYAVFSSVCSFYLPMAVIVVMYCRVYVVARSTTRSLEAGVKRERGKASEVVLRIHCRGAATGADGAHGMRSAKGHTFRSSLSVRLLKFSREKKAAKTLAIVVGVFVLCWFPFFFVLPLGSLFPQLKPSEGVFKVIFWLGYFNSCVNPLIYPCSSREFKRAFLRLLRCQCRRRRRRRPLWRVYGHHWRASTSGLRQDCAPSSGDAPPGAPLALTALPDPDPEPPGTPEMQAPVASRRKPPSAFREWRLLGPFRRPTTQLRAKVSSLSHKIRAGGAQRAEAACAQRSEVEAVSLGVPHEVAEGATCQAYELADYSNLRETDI
T3 sequence (P47898 whole entry): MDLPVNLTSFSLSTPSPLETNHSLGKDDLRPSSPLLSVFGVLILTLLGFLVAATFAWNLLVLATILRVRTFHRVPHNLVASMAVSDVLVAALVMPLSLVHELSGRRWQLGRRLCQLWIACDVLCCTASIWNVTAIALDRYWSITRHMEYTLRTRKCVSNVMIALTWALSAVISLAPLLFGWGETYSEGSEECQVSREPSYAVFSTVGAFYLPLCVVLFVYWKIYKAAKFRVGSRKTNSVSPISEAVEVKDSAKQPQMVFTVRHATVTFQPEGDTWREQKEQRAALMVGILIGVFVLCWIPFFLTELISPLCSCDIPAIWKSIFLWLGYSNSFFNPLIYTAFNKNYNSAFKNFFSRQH

OCCc1cc(-c2cncc(OC[C@@H]3CCN3)c2)on1 [LF-3-88, 2-[5-[5-(2(S)-azetidinylmethoxyl)-3-pyridyl]-3-isoxazolyl]ethanol]
inhibition across 51 other CNS neurotransmitter receptors and transporters [1]: ≤ 50%
inhibition at 10 µM (5-HT2C): 22.7%
inhibition at 10 µM (5-HT3): -1%
inhibition at 10 µM (5-HT5A): 13.2%
inhibition at 10 µM (α1D adrenergic receptor): -3.4%
inhibition at 10 µM (α2B adrenergic receptor): -17.7%
inhibition at 10 µM (α2C adrenergic receptor): 17.2%
inhibition at 10 µM (β3 adrenergic receptor): 28.3%
Inhibition (primary binding competition efficacy), GABAA (GABAA): -7.6%
Inhibition (primary binding competition efficacy), NMDA [2]: -4.7%
inhibition at 10 µM (M1 muscarinic receptor): 8.8%
inhibition at 10 µM (M2 muscarinic receptor): 6.8%
inhibition at 10 µM (M3 muscarinic receptor): 0.9%
Remaining (metabolic stability) [3]: 81%
CYP2D6 Inhibition (CYP2D6): -0.4%
inhibition toward five CYP450 enzymes [4]: No significant inhibition
Ames test Result (strain TA98; strain TA98 + S9, 1.0E-04 M): Negative
Ames test Result (strain TA98; strain TA98 + S9, 1.0E-05 M): Negative
Ames test Result (strain TA98; strain TA98 + S9, 5.0E-05 M): Negative
Ames test Result (strain TA98; strain TA98 + S9, 5.0E-06 M): Negative
Ames test Result (strain TA98; strain TA98 – S9, 1.0E-04 M): Negative
Ames test Result (strain TA98; strain TA98 – S9, 1.0E-05 M): Negative
Ames test Result (strain TA98; strain TA98 – S9, 5.0E-05 M): Negative
Ames test Result (strain TA98; strain TA98 – S9, 5.0E-06 M): Negative
mutagenic potential (Ames), TA98 (strain TA98; with or without S9, 5, 10, 50, or 100 μmol/L): negative
SmartCube antidepressant (green) component (Male C57 BL6 mice; 5 and 10 mg/kg, i.p.): antidepressive-like behavioral signatures; also recorded: potential antidepressive-like behavior; also recorded: most pronounced
SmartCube side effects (Male C57 BL6 mice; 5 and 10 mg/kg, i.p.): Minimal side effects
SmartCube side effect signature (Male C57 BL6 mice; both tested doses (5 and 10 mg/kg)): less than 10%
SmartCube behavioral signature (Male C57 BL6 mice; both tested doses, i.p., 15 min preinjection): robust CNS drug-like signatures
Ki (α7* nAChR; Figure 1): > 10 µM
Ki α7* (α7* nAChR; rat forebrain, class symbol): NA (NA: not active, defined as < 50% binding in the primary assay at 10 μmol/L)
mortality (Balb/CJ mice): no mortality
